{"source": "patent US8846657B2", "about": "“Substituted imidazopyridines as HDM2 inhibitors” (Merck Sharp & Dohme Corp., priority 2012, dated 2014)", "data": [{"biological_target": "HDM2 (Homo sapiens (Human), UniProt Q00987)", "sequence (Q00987 17-125)": "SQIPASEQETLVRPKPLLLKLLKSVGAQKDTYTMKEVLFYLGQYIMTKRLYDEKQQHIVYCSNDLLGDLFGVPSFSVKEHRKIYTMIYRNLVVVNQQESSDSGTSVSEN", "experiment": "HDM2 FRET assay (inhibition of p53 peptide binding to HDM2)", "conditions": "read-out: FRET IC50", "units": {"IC50": "nM"}, "from_the_text": "Methods: An HDM2 FRET assay was developed to assess the compounds' inhibitory activity towards binding of p53 protein. […] Ratio of em520/em495 was used to calculate % inhibition and to obtain IC50 with 4-parameter logistic equation.\nConcentration of compound was plotted against em520/Cem495 ratio signal. To generate IC50 values, the dose-response curves were fitted to a standard sigmoidal curve and IC50 values were derived by nonlinear regression analysis.", "values": [{"compound": "C[C@H]1CC[C@H](Cn2c(N3CCC[C@H]3C(F)(F)F)nc3cc(-c4nnn[nH]4)nc(-c4cncc(Cl)c4)c32)CC1", "note": "[Example 14.1, 4-(5-chloropyridin-3-yl)-3-[(trans-4-methylcyclohexyl)methyl]-6-(1H-tetrazol-5-yl)-2-[(2S)-2-(trifluoromethyl)pyrrolidin-1-yl]-3H-imidazo[4,5-c]pyridine]", "IC50": "< 1"}, {"compound": "C[C@H]1CC[C@H](Cn2c(N3CCO[C@@H]4CCC[C@H]43)nc3cc(-c4nnn[nH]4)nc(-c4cncc(Cl)c4)c32)CC1", "note": "[Example 14.4, 4-(5-chloropyridin-3-yl)-2-[(4aR,7aR)-hexahydrocyclopenta[b][1,4]oxazin-4(4aH)-yl]-3-[(trans-4-methylcyclohexyl)methyl]-6-(1H-tetrazol-5-yl)-3H-imidazo[4,5-c]pyridine]", "IC50": "< 1"}]}, {"biological_target": "HDM2 (Homo sapiens (Human), UniProt Q00987)", "experiment": "HDM2 FRET assay (inhibition of p53 peptide binding to HDM2)", "conditions": "read-out: FRET IC50; 0.5 nM HDM2 (residues 17-125), 3 nM FITC peptide, 2 h at room temperature; values rounded to the nearest integer", "units": {"IC50": "nM"}, "values": [{"compound": "C[C@H]1CC[C@H](Cn2c(N3CCC[C@H]3c3nccs3)nc3cc(-c4noc(=O)[nH]4)nc(-c4cncc(Cl)c4)c32)CC1", "note": "[Example 3.81, 3-{4-(5-chloropyridin-3-yl)-3-[(trans-4-methylcyclohex-yl)methyl]-2-[(2S)-2-(1,3-thiazol-2-yl)pyrrolidin-1-yl]-3H-imidazo[4,5-c]pyridin-6-yl}-1,2,4-oxadiazol-5(4H)-one]", "IC50": "< 1"}, {"compound": "COCCO[C@@H]1C[C@@H](C(C)C)N(c2nc3cc(-c4noc(=O)[nH]4)nc(-c4cncc(Cl)c4)c3n2C[C@H]2CC[C@H](C)CC2)C1", "note": "[Example 3.144, 3-{4-(5-chloropyridin-3-yl)-2-[(2S,4R)-4-(2-methoxyethoxy)-2-(1-methylethyl)-pyrrolidin-1-yl]-3-[(trans-4-methylcyclohex-yl)methyl]-3H-imidazo[4,5-c]pyridin-6-yl}-1,2,4-oxadiazol-5(4H)-one]", "IC50": "< 1"}, {"compound": "C[C@H]1CC[C@H](Cn2c(N3CCOC[C@H]3c3ccccc3)nc3cc(-c4noc(=O)[nH]4)nc(-c4cncc(Cl)c4)c32)CC1", "note": "[Example 2.1, 3-{4-(5-chloropyridin-3-yl)-3-[(trans-4-methylcyclohexyl)methyl]-2-[(3R)-3-phenylmorpholin-4-yl]-3H-imidazo[4,5-c]pyridin-6-yl}-1,2,4-oxadiazol-5(4H)-one]", "IC50": "< 1"}, {"compound": "CO[C@@H]1C[C@@H](C(C)C)N(c2nc3cc(-c4noc(=O)[nH]4)nc(-c4cncc(Cl)c4)c3n2C[C@H]2CC[C@H](C)CC2)C1", "note": "[Example 3.90, 3-{4-(5-chloropyridin-3-yl)-2-[(2S,4R)-4-methoxy-2-(propan-2-yl)pyrrolidin-1-yl]-3-[(trans-4-methylcyclohexyl)methyl]-3H-imidazo[4,5-d]pyridin-6-yl}-1,2,4-oxadiazol-5(4H)-one]", "IC50": "< 1"}]}]}
